Results from PubChem BioAssay AID248 (DTP/NCI, 2004).
“And” between values parts separate entries of the source, which are not always exact repeats. Identical values can stand only once. Inconclusive results and toxic doses are left out.

Tested on: L1210 leukemia ip in BDF1 mice, survival T/C
Assay: NCI In Vivo Anticancer Drug Screen. Data for tumor model L1210 Leukemia (intraperitoneal) in B6D2F1 (BDF1) mice
Conditions: higher = longer survival
Outline: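 Mice bearing the transplanted tumor received compound or vehicle. Survival of the treated group was divided by that of the vehicle-treated control group to give the ratio.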

[1] = endpoint: mean survival time, dose: 100.0 mg/kg/injection, schedule: Q01DX001 (ip), vehicle: saline
[2] = endpoint: mean survival time, dose: 200.0 mg/kg/injection, schedule: Q01DX001 (ip), vehicle: saline
[3] = endpoint: mean survival time, dose: 400.0 mg/kg/injection, schedule: Q01DX001 (ip), vehicle: saline
[4] = endpoint: mean survival time, dose: 0.5 mg/kg/injection, schedule: Q01DX009 (ip), vehicle: saline
[5] = endpoint: mean survival time, dose: 1.0 mg/kg/injection, schedule: Q01DX009 (ip), vehicle: saline
[6] = endpoint: mean survival time, dose: 2.0 mg/kg/injection, schedule: Q01DX009 (ip), vehicle: saline
[7] = endpoint: mean survival time, dose: 100.0 mg/kg/injection, schedule: Q01DX009 (ip), vehicle: Klucel (hydroxypropylcellulose) (HPC)
[8] = endpoint: mean survival time, dose: 200.0 mg/kg/injection, schedule: Q01DX009 (ip), vehicle: Klucel (hydroxypropylcellulose) (HPC)
[9] = endpoint: mean survival time, dose: 400.0 mg/kg/injection, schedule: Q01DX009 (ip), vehicle: Klucel (hydroxypropylcellulose) (HPC)

Question: What does the source list for `O=C1c2ccccc2C(=O)c2c(NCCNCCO)ccc(NCCNCCO)c21`?
Answer: T/C (endpoint: mean survival time, dose: 2.0 mg/kg/injection, schedule: Q01DX009 (ip), vehicle: Klucel (hydroxypropylcellulose) (HPC)): 204 % of control; T/C (endpoint: mean survival time, dose: 2.0 mg/kg/injection, schedule: Q01DX009 (ip), vehicle: saline with Tween-80): 162 % of control; T/C (endpoint: mean survival time, dose: 2.0 mg/kg/injection, schedule: Q01DX009 (ip), vehicle: water): 196 % of control; T/C (endpoint: mean survival time, dose: 4.0 mg/kg/injection, schedule: Q01DX009 (ip), vehicle: Klucel (hydroxypropylcellulose) (HPC)): 306 % of control; T/C (endpoint: mean survival time, dose: 4.0 mg/kg/injection, schedule: Q01DX009 (ip), vehicle: saline with Tween-80): 153 % of control; T/C (endpoint: mean survival time, dose: 4.0 mg/kg/injection, schedule: Q01DX009 (ip), vehicle: water): 159 % of control; T/C (endpoint: mean survival time, dose: 8.0 mg/kg/injection, schedule: Q01DX009 (ip), vehicle: Klucel (hydroxypropylcellulose) (HPC)): 491 % of control; T/C (endpoint: mean survival time, dose: 8.0 mg/kg/injection, schedule: Q01DX009 (ip), vehicle: saline with Tween-80): 220 % of control; T/C (endpoint: mean survival time, dose: 8.0 mg/kg/injection, schedule: Q01DX009 (ip), vehicle: water): 498 % of control; T/C (endpoint: mean survival time, dose: 16.0 mg/kg/injection, schedule: Q01DX009 (ip), vehicle: Klucel (hydroxypropylcellulose) (HPC)): 347 % of control; T/C (endpoint: mean survival time, dose: 16.0 mg/kg/injection, schedule: Q01DX009 (ip), vehicle: saline with Tween-80): 253 % of control; T/C (endpoint: mean survival time, dose: 16.0 mg/kg/injection, schedule: Q01DX009 (ip), vehicle: water): 396 % of control; T/C (endpoint: mean survival time, dose: 32.0 mg/kg/injection, schedule: Q01DX009 (ip), vehicle: Klucel (hydroxypropylcellulose) (HPC)): 118 % of control; T/C (endpoint: mean survival time, dose: 32.0 mg/kg/injection, schedule: Q01DX009 (ip), vehicle: saline with Tween-80): 89 % of control; T/C (endpoint: mean survival time, dose: 32.0 mg/kg/injection, schedule: Q01DX009 (ip), vehicle: water): 93 % of control; T/C (endpoint: median survival time, dose: 8.0 mg/kg/injection, schedule: Q01DX005 (oral), vehicle: Klucel (hydroxypropylcellulose) (HPC)): 90 % of control; T/C (endpoint: median survival time, dose: 8.0 mg/kg/injection, schedule: Q01DX005 (oral), vehicle: water): 101 % of control; T/C (endpoint: median survival time, dose: 16.0 mg/kg/injection, schedule: Q01DX005 (oral), vehicle: Klucel (hydroxypropylcellulose) (HPC)): 98 % of control; T/C (endpoint: median survival time, dose: 16.0 mg/kg/injection, schedule: Q01DX005 (oral), vehicle: water): 101 % of control; T/C (endpoint: median survival time, dose: 32.0 mg/kg/injection, schedule: Q01DX005 (oral), vehicle: Klucel (hydroxypropylcellulose) (HPC)): 94 % of control; T/C (endpoint: median survival time, dose: 32.0 mg/kg/injection, schedule: Q01DX005 (oral), vehicle: water): 101 % of control; T/C (endpoint: median survival time, dose: 64.0 mg/kg/injection, schedule: Q01DX005 (oral), vehicle: Klucel (hydroxypropylcellulose) (HPC)): 100 % of control; T/C (endpoint: median survival time, dose: 64.0 mg/kg/injection, schedule: Q01DX005 (oral), vehicle: water): 97 % of control; T/C (endpoint: median survival time, dose: 128.0 mg/kg/injection, schedule: Q01DX005 (oral), vehicle: Klucel (hydroxypropylcellulose) (HPC)): 94 % of control; T/C (endpoint: median survival time, dose: 128.0 mg/kg/injection, schedule: Q01DX005 (oral), vehicle: water): 100 % of control; T/C (endpoint: median survival time, dose: 256.0 mg/kg/injection, schedule: Q01DX005 (oral), vehicle: Klucel (hydroxypropylcellulose) (HPC)): 98 % of control; T/C (endpoint: median survival time, dose: 256.0 mg/kg/injection, schedule: Q01DX005 (oral), vehicle: water): 102 % of control; T/C (endpoint: median survival time, dose: 512.0 mg/kg/injection, schedule: Q01DX005 (oral), vehicle: Klucel (hydroxypropylcellulose) (HPC)): 103 % of control; T/C (endpoint: median survival time, dose: 512.0 mg/kg/injection, schedule: Q01DX005 (oral), vehicle: water): 106 % of control

Question: How did the T/C (endpoint: mean survival time, dose: 6.25 mg/kg/injection, schedule: Q04DX003 (ip), vehicle: Klucel (hydroxypropylcellulose) (HPC)) turn out when `CC(C)(C)CC(C)(C)NCC#N` was run?
Answer: 92 % of control

Question: What about the T/C (endpoint: mean survival time, dose: 12.5 mg/kg/injection, schedule: Q04DX003 (ip), vehicle: Klucel (hydroxypropylcellulose) (HPC)) of the same molecule?
Answer: 95 % of control

Question: And the T/C (endpoint: mean survival time, dose: 25.0 mg/kg/injection, schedule: Q04DX003 (ip), vehicle: Klucel (hydroxypropylcellulose) (HPC))?
Answer: 92 % of control and 96 % of control

Question: For `CC1(C)N=C(N)N=C(N)N1c1cccc(OCCCOc2ccc(NC(=O)/C=C\C(=O)O)cc2)c1`, which T/C [1] is on record?
Answer: 102 % of control

Question: And the T/C [2]?
Answer: 101 % of control

Question: What about the T/C [3] of the same molecule?
Answer: 102 % of control

Question: What does the source list for `Cc1ccc2cccc3c2c1S(=O)(=O)c1cccc2cccc(c12)C3`?
Answer: T/C [1]: 98 % of control; T/C [2]: 104 % of control; T/C [3]: 93 % of control

Question: `O=C1C=CC(=O)C=C1` was tested. Which T/C [4] did it give?
Answer: 97 % of control

Question: And the T/C [5]?
Answer: 97 % of control

Question: And the T/C [6]?
Answer: 94 % of control

Question: And the T/C (endpoint: mean survival time, dose: 4.0 mg/kg/injection, schedule: Q01DX009 (ip), vehicle: saline)?
Answer: 94 % of control

Question: For `CCOc1ccc(C(/C(Cl)=N/O)C(Cl)(Cl)Cl)cc1` (stereo not given), which T/C (endpoint: mean survival time, dose: 12.5 mg/kg/injection, schedule: Q04DX003 (ip), vehicle: acetone) is on record?
Answer: 93 % of control

Question: What about the T/C (endpoint: mean survival time, dose: 25.0 mg/kg/injection, schedule: Q04DX003 (ip), vehicle: acetone) of the same molecule?
Answer: 97 % of control

Question: What about the T/C (endpoint: mean survival time, dose: 50.0 mg/kg/injection, schedule: Q04DX003 (ip), vehicle: acetone) of the same molecule?
Answer: 92 % of control

Question: What does the source list for `COC(=O)NC1CCCC1I` (stereo not given)?
Answer: T/C (endpoint: mean survival time, dose: 75.0 mg/kg/injection, schedule: Q01DX001 (ip), vehicle: saline): 102 % of control; T/C (endpoint: mean survival time, dose: 150.0 mg/kg/injection, schedule: Q01DX001 (ip), vehicle: saline): 109 % of control; T/C (endpoint: mean survival time, dose: 300.0 mg/kg/injection, schedule: Q01DX001 (ip), vehicle: saline): 98 % of control

Question: For `COc1ccc(CCO)cc1`, which T/C (endpoint: mean survival time, dose: 100.0 mg/kg/injection, schedule: Q04DX003 (ip), vehicle: saline with Tween-80) is on record?
Answer: 92 % of control

Question: What about the T/C (endpoint: mean survival time, dose: 200.0 mg/kg/injection, schedule: Q04DX003 (ip), vehicle: saline with Tween-80) of the same molecule?
Answer: 101 % of control

Question: And the T/C (endpoint: mean survival time, dose: 400.0 mg/kg/injection, schedule: Q04DX003 (ip), vehicle: saline with Tween-80)?
Answer: 95 % of control

Question: Which T/C (endpoint: mean survival time, dose: 30.0 mg/kg/injection, schedule: Q01DX Z (ip), vehicle: methylcellulose (MC)) does the source give for `Nc1ccc(NC(=O)c2ccc(C(=O)Nc3ccc(N)cc3)cc2)cc1` here?
Answer: 103 % of control

Question: What about the T/C (endpoint: mean survival time, dose: 60.0 mg/kg/injection, schedule: Q01DX Z (ip), vehicle: methylcellulose (MC)) of the same molecule?
Answer: 103 % of control

Question: And the T/C (endpoint: mean survival time, dose: 120.0 mg/kg/injection, schedule: Q01DX Z (ip), vehicle: methylcellulose (MC))?
Answer: 95 % of control

Question: What about the T/C (endpoint: mean survival time, dose: 125.0 mg/kg/injection, schedule: Q01DX Z (ip), vehicle: water) of the same molecule?
Answer: 96 % of control

Question: And the T/C (endpoint: mean survival time, dose: 250.0 mg/kg/injection, schedule: Q01DX Z (ip), vehicle: water)?
Answer: 93 % of control

Question: And the T/C (endpoint: mean survival time, dose: 500.0 mg/kg/injection, schedule: Q01DX Z (ip), vehicle: water)?
Answer: 98 % of control

Question: With `CCOC(=O)NCc1ccccc1` as the molecule, how does the T/C [7] read?
Answer: 101 % of control

Question: And the T/C (endpoint: mean survival time, dose: 100.0 mg/kg/injection, schedule: Q04DX003 (ip), vehicle: Klucel (hydroxypropylcellulose) (HPC))?
Answer: 98 % of control

Question: And the T/C [8]?
Answer: 106 % of control

Question: What about the T/C (endpoint: mean survival time, dose: 200.0 mg/kg/injection, schedule: Q04DX003 (ip), vehicle: Klucel (hydroxypropylcellulose) (HPC)) of the same molecule?
Answer: 95 % of control

Question: And the T/C [9]?
Answer: 95 % of control

Question: What about the T/C (endpoint: mean survival time, dose: 400.0 mg/kg/injection, schedule: Q04DX003 (ip), vehicle: Klucel (hydroxypropylcellulose) (HPC)) of the same molecule?
Answer: 101 % of control

Question: Which results are given for `Cc1ccc(Cl)c(NC(=O)Nc2ccccc2Cl)c1`?
Answer: T/C [7]: 94 % of control and 90 % of control; T/C [8]: 93 % of control; T/C [9]: 88 % of control and 89 % of control

Question: With `Cc1ccc(NC(=O)C(F)(F)C(F)(F)C(F)(F)F)cc1` as the molecule, how does the T/C [1] read?
Answer: 89 % of control

Question: What about the T/C [2] of the same molecule?
Answer: 97 % of control

Question: What about the T/C [3] of the same molecule?
Answer: 105 % of control

Question: What does the source list for `O=C1C(N2CCCC2)=C(N2CC2)C(=O)C(N2CCCC2)=C1N1CC1`?
Answer: T/C (endpoint: mean survival time, dose: 0.25 mg/kg/injection, schedule: Q01DX009 (ip), vehicle: saline): 94 % of control and 119 % of control; T/C (endpoint: mean survival time, dose: 0.39 mg/kg/injection, schedule: Q04DX003 (ip), vehicle: saline): 108 % of control; T/C [4]: 101 % of control and 103 % of control; T/C (endpoint: mean survival time, dose: 0.78 mg/kg/injection, schedule: Q04DX003 (ip), vehicle: saline): 96 % of control; T/C [5]: 106 % of control and 118 % of control; T/C (endpoint: mean survival time, dose: 1.56 mg/kg/injection, schedule: Q04DX003 (ip), vehicle: saline): 115 % of control; T/C (endpoint: mean survival time, dose: 2.0 mg/kg/injection, schedule: Q01DX001 (ip), vehicle: saline): 108 % of control; T/C [6]: 121 % of control and 124 % of control; T/C (endpoint: mean survival time, dose: 4.0 mg/kg/injection, schedule: Q01DX001 (ip), vehicle: saline): 97 % of control; T/C (endpoint: mean survival time, dose: 8.0 mg/kg/injection, schedule: Q01DX001 (ip), vehicle: saline): 87 % of control; T/C (endpoint: mean survival time, dose: 12.5 mg/kg/injection, schedule: Q04DX003 (ip), vehicle: saline): 92 % of control
